Laboratory results taken from patent US20250120980A1, “DIBENZ[…] AND USE IN […] PROTEIN AGONISTS THEREOF” (priority 2023, published 2025).
“And” between values parts separate entries of the source, which are not always exact repeats. Identical values can stand only once.

Columns and labels:
Format in all cases: cell-based
[1] = test system: STING pathway (IFNb gene expression) in L929 mouse epithelial-like fibroblasts
[2] = test system: PRV-GFP (porcine pseudorabies virus)
[3] = test system: VSV-GFP (vesicular stomatitis virus)
IAV (influenza virus) = test system: IAV (influenza virus)

Row | Compound | IFNb mRNA expression 2-^ΔΔCt value [1] | Infection Rate, PRV-GFP [2] | proportion of PRV-GFP infected cells (in words) [2] | Infection Rate, VSV-GFP [3] | proportion of VSV-GF infected cells (in words) [3] | M1 (M gene of influenza virus) Ct value (IAV (influenza virus))
1 | O=C1Cc2ccccc2Nc2c(Cl)cccc21 [Compound 15, 6-chloro-5,11-dihydro-10H-dibenzo[b,f]aza-10-one] | 1.61 | – | – | – | – | –
2 | COc1ccc2c(c1)Nc1c(ccc(C)c1C)C(=O)C2 [Compound 18, 3-methoxy-6,7-dimethyl-5,11-dihydro-10H-dibenzo[b,f]aza-10-one] | 8.76 and 6.92 and 6.07 and 5.62 | 18.3% and 18.1% | significantly reduced | 13.9% and 12.5% and 12.9% | significantly reduced | 19.52 and 19.47 and 19.51
3 | COc1ccc2c(c1)CC(=O)c1ccc(C)c(C)c1N2 [Compound 19, 2-methoxy-6,7-dimethyl-5,11-dihydro-10H-dibenzo[b,f]aza-10-one] | – | 51% and 55.7% and 50.2% | significantly reduced | 99% and 91.1% and 90.5% | significantly reduced | 21.37 and 21.39 and 21.49
4 | COc1ccc2c(c1)C(=O)Cc1ccccc1N2 [Compound 17, 8-methoxy-5,11-dihydro-10H-dibenzo[b,f]aza-10-one] | 1.54 | – | – | – | – | –
5 | Cc1ccc2c(c1C)Nc1cc(F)ccc1CC2=O [Compound 13, 3-fluoro-6,7-dimethyl-5,11-dihydro-10H-dibenzo[b,f]aza-10-one] | 2.97 and 2.37 and 2.48 and 3.34 | 7.06% and 8.55% and 7.42% | significantly reduced | 94.3% and 92.7% and 92.1% | significantly reduced | 19.45 and 20.25 and 19.66
6 | Cc1ccc2c(c1C)Nc1ccccc1CC2=O [Compound 11, 6,7-dimethyl-5,11-dihydro-10H-dibenzo[b,f]aza-10-one] | – | 13.1% and 14.2% and 13.5% | significantly reduced | 40% and 31.1% and 33.7% | significantly reduced | 18.71 and 18.62 and 18.68
7 | O=C1Cc2ccccc2Nc2ccccc21 [Compound 14, 5,11-dihydro-10H-dibenzo[b,f]aza-10-one] | – | 17.1% and 19.5% and 19.8% | significantly reduced | 76.1% and 66.5% and 65.8% | significantly reduced | 18.99 and 19.52 and 19.69
